Test results as given in ChEMBL document CHEMBL5360657, “Discovery of the TLR7/8 Antagonist MHV370 for Treatment of Systemic Autoimmune Diseases” (ACS Med Chem Lett, 2023).

How the values were obtained:
[1] = AUC in mouse at 3 mg/kg, iv; assay type: ADME, organism-based; design: dose 3 mg/kg, route iv; conditions: in vivo
[2] = MRT in mouse at 20 mg/kg, po; assay type: ADME, organism-based; conditions: in vivo
[3] = Solubility of the compound; assay type: physicochemical
Toll-like receptor 7 = biological target: T1, Toll-like receptor 7 (Homo sapiens, UniProt Q9NYK1); assay: Antagonist activity at TLR7 in human Whole blood cell assessed as reduction in IFN-alpha level measured after 30 mins; assay type: tissue-based
T1 sequence (Q9NYK1 whole entry): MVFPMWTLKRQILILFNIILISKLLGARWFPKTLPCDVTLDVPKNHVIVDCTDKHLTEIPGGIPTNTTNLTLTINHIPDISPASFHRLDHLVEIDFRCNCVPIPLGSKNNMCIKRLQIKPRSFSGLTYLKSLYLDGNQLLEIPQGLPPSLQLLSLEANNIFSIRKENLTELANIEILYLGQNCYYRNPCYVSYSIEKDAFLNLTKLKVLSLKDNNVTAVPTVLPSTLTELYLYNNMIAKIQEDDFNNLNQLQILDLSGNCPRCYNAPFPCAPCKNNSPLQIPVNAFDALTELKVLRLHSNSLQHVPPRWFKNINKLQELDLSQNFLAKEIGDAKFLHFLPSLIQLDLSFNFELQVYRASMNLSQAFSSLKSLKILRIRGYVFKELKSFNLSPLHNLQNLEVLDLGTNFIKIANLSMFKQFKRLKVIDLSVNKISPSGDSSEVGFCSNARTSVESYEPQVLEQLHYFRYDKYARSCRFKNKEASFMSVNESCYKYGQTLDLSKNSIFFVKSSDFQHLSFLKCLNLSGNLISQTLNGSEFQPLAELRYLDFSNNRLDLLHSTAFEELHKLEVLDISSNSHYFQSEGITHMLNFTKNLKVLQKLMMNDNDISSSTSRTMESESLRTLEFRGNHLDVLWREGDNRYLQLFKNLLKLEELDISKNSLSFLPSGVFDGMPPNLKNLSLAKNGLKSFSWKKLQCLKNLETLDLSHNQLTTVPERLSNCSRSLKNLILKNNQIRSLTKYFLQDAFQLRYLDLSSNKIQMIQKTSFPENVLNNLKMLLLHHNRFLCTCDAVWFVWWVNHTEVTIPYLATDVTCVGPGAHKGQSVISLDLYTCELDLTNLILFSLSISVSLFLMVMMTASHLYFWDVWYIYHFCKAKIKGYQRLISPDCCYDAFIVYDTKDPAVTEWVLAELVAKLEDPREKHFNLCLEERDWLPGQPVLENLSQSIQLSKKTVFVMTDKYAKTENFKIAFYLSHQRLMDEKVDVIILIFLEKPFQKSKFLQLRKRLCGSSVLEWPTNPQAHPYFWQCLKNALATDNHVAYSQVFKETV

Toll-like receptor 9 [4] = biological target: T2, Toll-like receptor 9 (Mus musculus, UniProt Q9EQU3); assay: Antagonist activity at TLR9 in mouse Splenocyte assessed as reduction in IFN-alpha level measured after 20 hrs by Spectramax M5 method; assay type: cell-based
T2 sequence (Q9EQU3 whole entry): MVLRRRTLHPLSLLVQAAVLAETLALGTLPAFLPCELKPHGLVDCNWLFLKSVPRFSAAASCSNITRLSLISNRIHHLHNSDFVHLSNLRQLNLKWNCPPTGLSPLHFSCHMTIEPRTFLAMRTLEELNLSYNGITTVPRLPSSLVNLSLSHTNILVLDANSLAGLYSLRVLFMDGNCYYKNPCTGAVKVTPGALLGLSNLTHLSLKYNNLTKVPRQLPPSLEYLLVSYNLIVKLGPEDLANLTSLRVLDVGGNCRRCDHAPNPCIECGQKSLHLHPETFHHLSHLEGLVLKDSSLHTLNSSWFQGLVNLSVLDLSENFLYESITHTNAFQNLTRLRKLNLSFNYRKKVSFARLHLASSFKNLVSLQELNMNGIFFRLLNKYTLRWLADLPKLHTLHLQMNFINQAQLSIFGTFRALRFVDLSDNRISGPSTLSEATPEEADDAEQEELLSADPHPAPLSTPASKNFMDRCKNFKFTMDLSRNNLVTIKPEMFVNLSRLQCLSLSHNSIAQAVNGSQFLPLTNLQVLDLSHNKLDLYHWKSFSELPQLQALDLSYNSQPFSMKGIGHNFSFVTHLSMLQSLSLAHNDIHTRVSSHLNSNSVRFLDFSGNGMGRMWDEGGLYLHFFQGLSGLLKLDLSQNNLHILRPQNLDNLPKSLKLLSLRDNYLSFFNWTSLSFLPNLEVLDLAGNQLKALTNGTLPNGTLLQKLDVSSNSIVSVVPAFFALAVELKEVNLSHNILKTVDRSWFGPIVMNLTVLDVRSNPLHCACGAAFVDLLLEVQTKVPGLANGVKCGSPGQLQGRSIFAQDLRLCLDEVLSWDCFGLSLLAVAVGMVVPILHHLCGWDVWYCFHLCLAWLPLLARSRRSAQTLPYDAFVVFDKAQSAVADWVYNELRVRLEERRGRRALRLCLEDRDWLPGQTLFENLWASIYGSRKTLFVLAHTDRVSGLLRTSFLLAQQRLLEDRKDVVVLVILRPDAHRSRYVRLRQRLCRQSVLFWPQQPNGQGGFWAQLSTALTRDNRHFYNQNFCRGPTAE

Toll-like receptor 9 [5] = biological target: T2, Toll-like receptor 9; assay: Antagonist activity at TLR9 in mouse Whole blood cell assessed as reduction in IFN-alpha level measured after 20 hrs by AlphaLISA method; assay type: tissue-based
[6] = biological target: Toll-like receptor 7 (Mus musculus) (UniProt P58681); assay: In vivo antagonist activity against TLR7 in mouse assessed as inhibition of IFN alpha level at 10 mg/kg, po measured after 2 hrs by LC-MS/MS analysis relative to control

AUC [1] [µM·h]	MRT [2] [h]	solubility [3] [µM]	Compound	IC50 (Toll-like receptor 7) [nM]	IC50 (Toll-like receptor 9 [4]) [nM]	IC50 (Toll-like receptor 9 [5]) [nM]	inhibition in vivo at 10 mg/kg [6] [%]
5.005	2.9	> 175	Cc1cc(N2CCc3c(c(C)nn3CC34CCC(N)(CC3)CC4)C2)c2cnn(C)c2n1				
			Cc1cc(N2CCc3c(c(C)nn3CC34CCC(NC(=O)[C@@H]5COCCN5)(CC3)CC4)C2)c2cnn(C)c2n1 [MHV-370]	7	> 1000	> 10000	~100
